Experimental data taken from PMC2730839 (Biochemistry, 2009).

Assays:
Assay type in all cases: binding
[1] = target: T1, benzoylformate decarboxylase (BFDC) (Pseudomonas putida, UniProt P20906); experiment: circular dichroism titration at […] nm
[2] = target: T1, benzoylformate decarboxylase (BFDC); experiment: X-ray crystal structure
[3] = target: T1, benzoylformate decarboxylase (BFDC); experiment: X-ray crystal structure; remark: listed apart in the source

T1 sequence (P20906 whole entry): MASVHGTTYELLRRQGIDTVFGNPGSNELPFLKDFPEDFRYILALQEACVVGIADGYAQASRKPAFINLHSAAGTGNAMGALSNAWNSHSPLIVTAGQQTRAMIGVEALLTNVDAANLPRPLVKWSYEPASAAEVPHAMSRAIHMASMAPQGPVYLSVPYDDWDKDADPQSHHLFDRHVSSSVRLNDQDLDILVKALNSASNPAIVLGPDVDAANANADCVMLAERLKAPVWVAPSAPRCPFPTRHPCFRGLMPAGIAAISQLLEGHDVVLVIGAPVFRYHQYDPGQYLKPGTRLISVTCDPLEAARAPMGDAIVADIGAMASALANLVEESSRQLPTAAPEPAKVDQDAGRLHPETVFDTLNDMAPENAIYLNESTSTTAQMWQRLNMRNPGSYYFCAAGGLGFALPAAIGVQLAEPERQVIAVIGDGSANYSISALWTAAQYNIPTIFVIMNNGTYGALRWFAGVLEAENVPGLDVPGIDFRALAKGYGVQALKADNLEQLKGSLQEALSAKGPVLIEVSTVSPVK

COP(=O)(O)C(C)=O [MAP, methyl acetylphosphonate]
Kd [1]: 5490 µM

COP(=O)(O)C(=O)c1ccccc1 [MBP, methyl benzoylphosphonate]
Kd [2]: 113 µM

Cc1ncc(C[n+]2csc(CCOP(=O)([O-])OP(=O)(O)O)c2C)c(N)n1 [ThDP, thiamin diphosphate]
X-ray crystal structure (1.37 Å), seen as its adduct with MBP [3]: the observed electron density is best fit by the covalent adduct between ThDP and MBP
